What was measured:
[1] = serum concentration in remnant kidney mice; format: in vivo; conditions: 129/SvEv, mouse, week 4 of dosing, 24 hours after a 10 mg/kg oral dose, once daily
Experimental: (§1) The oral vehicle for testing the compound of Formula I is 5% Kolliphor® HS 15, 5% EtOH, NaCMC 1%/SLS 0.5%/Antifoam 0.05%/Povidone 0.085% from Ricca Chemical Company. The sham group is fed a conventional diet (Purina Formulab Diet 5008) and is not dosed with vehicle or the compound of Formula I during the dosing portion of the study. One of the remaining two groups is orally dosed vehicle once daily (10 ml/kg), and the other group is orally dosed once daily with the compound of Formula I at 10 mg/kg, in vehicle. Both dosing groups receive a conventional diet (Purina Formulab Diet 5008) during the dosing portion of the study.
(§2) Spot urine samples are collected on day −7 prior to the dosing portion of the study. Urine samples are taken weekly during the dosing portion of the study. Body weights are measured on days 15, 29, 43, 57, 64, 71, and 78. Blood samples are taken at week 4 of the dosing portion of the study a well as at the study termination (day 84). At week 4 of the dosing portion of the study, the mean serum concentration of the compound of Formula I 24 hours after a 10 mg/kg dose is 49±66 ng/ml.

[2] = test system: mouse remnant kidney model; assay: mouse remnant kidney model (5/6th nephrectomy) of chronic renal failure; format: in vivo; conditions: 10 mg/kg orally once daily
Experimental: The purpose of this assay is to analyze the compound of Formula I in a mouse chronic renal failure model, and particularly the ability to improve albuminuria and renal histopathological lesions. This assay is known as the mouse remnant kidney model, where following a unilateral nephrectomy, partial surgical removal of approximately ⅓ of the remaining kidney is carried out to replicate chronic renal failure. This model is sometimes also referred to as a “5/6th nephrectomy” model that was originally developed in rat. A description of this model may be found in published US patent application US 2014/0271675 (Qi, et al.) and (Leelahavanichkul, et al. (2010) Kidney Int. 78(11): 1136-1153.
Thirty-five eight to nine week old mice (strain 129/SvEv from Taconic) are employed in the model, and all have surgeries. A sham group having five mice have surgeries where the kidneys are not removed. The mice in the remaining two groups having fifteen mice each undergo remnant surgery. The surgeries take place approximately three weeks prior to the dosing portion of the study. The dosing portion of the study is 85 days long.
as §1, §2

[3] = renal morphology, compared with vehicle treatment

Structure (SMILES): Cc1cc(OCc2c(-c3ccccc3OC(F)(F)F)noc2C2CC2)ccc1-c1ccc2c(C(=O)O)csc2c1 [compound of Formula I, 6-{4-[5-Cyclopropyl-3-(2-trifluoromethoxy-phenyl)-isoxazol-4-ylmethoxy]-2-methyl-phenyl}-benzo[b]thiophene-3-carboxylic acid]
- concentration at 24 h [1]: 49 ± 66 ng/mL
- reduction in urine ACR (albumin/creatinine ratio) ([2]; remnant mice, observed within 2 weeks, persists through end of 85-day dosing): 32-38%
- interstitial inflammation ([2]; renal morphology): mildly reduced
- tubular regeneration ([2]; renal morphology): mildly reduced
- incidence and severity of glumerulosclerosis [2, 3]: notably reduced
- incidence and severity of tubular protein [2, 3]: notably reduced
- incidence of tubular changes (dilation, atrophy) [2, 3]: reduced

From patent US20170354645A1, “METHODS FOR TREATING KIDNEY DISORDERS” (Eli Lilly and Company, priority 2014, published 2017)
